Bridge positions count the residues as written; N and C are the ends. Square brackets hold non-standard residues; d marks the D form. Peptide text beside a SMILES is read from it. NMeF = CN[C@@H](Cc1ccccc1)C(=O)O; NMeNle = CCCC[C@H](NC)C(=O)O; NMeA = CN[C@@H](C)C(=O)O; Sar = CNCC(=O)O
Assays:
PD-L1 [1] = assay: X-ray crystallography of PD-L1/peptide complexes; type: binding; conditions: crystal structures of PD-L1/peptide-71 (2.5 Å) and PD-L1/peptide-57 (below 1 Å)
PD-L1 [2] = assay: differential scanning fluorimetry; type: binding; conditions: DSF; for melting temperature of PD-L1 (Tm): PD-L1 alone Tm 37.6°C; for stabilization of PD-L1 against thermal induced unfolding: relative to PD-L1 alone (Tm 37.6°C)

| SMILES | binding site on PD-L1 (PD-L1 [1]) | melting temperature of PD-L1 (Tm) (PD-L1 [2]) | stabilization of PD-L1 against thermal induced unfolding (PD-L1 [2]) |
| --- | --- | --- | --- |
| CCCC[C@H]1C(=O)N(C)[C@@H](CCCC)C(=O)N[C@@H](CCCNC(=N)N)C(=O)N[C@H](C(=O)NCC(N)=O)CSCC(=O)N[C@@H](Cc2ccccc2)C(=O)N(C)[C@@H](C)C(=O)N[C@@H](CC(N)=O)C(=O)N2CCC[C@H]2C(=O)N[C@@H](Cc2c[nH]cn2)C(=O)N[C@@H](CC(C)C)C(=O)N(C)CC(=O)N[C@@H](Cc2c[nH]c3ccccc23)C(=O)N[C@@H](CO)C(=O)N[C@@H](Cc2c[nH]c3ccccc23)C(=O)N1C [peptide-57] ({CH2CO}-F[NMeA]NPHL[Sar]WSW[NMeNle][NMeNle]RCG-NH2; thioether N-14; N-terminus and C-terminus assumed) | bind to PD-L1 partially at the site of the PD-1 interaction | 51.6 °C | 14 °C |
| CCCC[C@H]1C(=O)N(C)CC(=O)N[C@@H](CC(=O)O)C(=O)N[C@@H](C(C)C)C(=O)N(C)[C@@H](Cc2ccccc2)C(=O)N[C@@H](Cc2ccc(O)cc2)C(=O)N(C)CC(=O)N[C@@H](Cc2c[nH]c3ccccc23)C(=O)N[C@@H](Cc2ccc(O)cc2)C(=O)N[C@@H](CC(C)C)C(=O)N[C@H](C(=O)NCC(N)=O)CSCC(=O)N[C@@H](Cc2ccccc2)C(=O)N(C)[C@@H](Cc2ccccc2)C(=O)N1C [peptide-71] ({CH2CO}-F[NMeF][NMeNle][Sar]DV[NMeF]Y[Sar]WYLCG-NH2; thioether N-13; N-terminus and C-terminus assumed) | bind to PD-L1 partially at the site of the PD-1 interaction | 56.6 °C | 19 °C |

— article PMC6400216 (Angewandte Chemie (International ed. in English), 2017)
